In US20240360113A1, “AMINOARYL-INTEGRIN AGONISTS COMPOUNDS” (Texas Heart Institute, priority 2021, published 2024):

These compounds were tested against T1, α4β1/VCAM-1 (Homo sapiens, UniProt P05556+P13612) (assay: Static cell adhesion assay, Jurkat cells on VCAM-1 (VLA-4 agonist activity)). Details: EC50 relative to THI0349 (average 11 uM) run on the same plate; Jurkat cells, 50% FBS.
T1 construct: The Jurkat (VCAM-1 assays) and HSB (ICAM-1 assays) cell lines were obtained from American Type Culture Collection; endogenous in cells; host or cells: Jurkat (ATCC)
T1 sequence (P13612 34-1032): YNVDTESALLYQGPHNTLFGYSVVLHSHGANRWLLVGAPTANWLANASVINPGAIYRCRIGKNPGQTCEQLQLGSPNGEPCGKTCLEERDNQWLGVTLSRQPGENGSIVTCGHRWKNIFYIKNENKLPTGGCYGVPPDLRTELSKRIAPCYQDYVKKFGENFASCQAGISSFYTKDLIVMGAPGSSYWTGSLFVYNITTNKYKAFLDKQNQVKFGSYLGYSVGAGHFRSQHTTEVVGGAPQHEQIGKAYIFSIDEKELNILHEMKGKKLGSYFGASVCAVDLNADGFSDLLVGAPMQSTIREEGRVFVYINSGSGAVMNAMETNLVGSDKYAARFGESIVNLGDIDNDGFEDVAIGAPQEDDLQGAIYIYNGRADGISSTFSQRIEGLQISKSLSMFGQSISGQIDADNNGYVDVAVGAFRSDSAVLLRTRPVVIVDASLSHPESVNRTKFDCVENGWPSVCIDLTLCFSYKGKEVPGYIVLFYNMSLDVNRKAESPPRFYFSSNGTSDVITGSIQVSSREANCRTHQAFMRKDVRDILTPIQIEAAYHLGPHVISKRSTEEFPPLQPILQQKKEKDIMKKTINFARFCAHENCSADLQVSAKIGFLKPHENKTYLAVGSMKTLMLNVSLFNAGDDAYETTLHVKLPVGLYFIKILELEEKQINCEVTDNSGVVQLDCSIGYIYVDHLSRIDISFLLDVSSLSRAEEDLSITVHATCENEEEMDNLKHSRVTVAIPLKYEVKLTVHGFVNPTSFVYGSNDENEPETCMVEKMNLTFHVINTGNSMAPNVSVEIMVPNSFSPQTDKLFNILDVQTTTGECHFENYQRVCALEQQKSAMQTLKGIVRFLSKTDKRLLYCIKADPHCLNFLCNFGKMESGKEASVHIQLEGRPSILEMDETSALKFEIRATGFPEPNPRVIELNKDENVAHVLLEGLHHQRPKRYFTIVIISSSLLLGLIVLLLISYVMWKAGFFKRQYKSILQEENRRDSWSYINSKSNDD
T1 sequence (P05556 21-798): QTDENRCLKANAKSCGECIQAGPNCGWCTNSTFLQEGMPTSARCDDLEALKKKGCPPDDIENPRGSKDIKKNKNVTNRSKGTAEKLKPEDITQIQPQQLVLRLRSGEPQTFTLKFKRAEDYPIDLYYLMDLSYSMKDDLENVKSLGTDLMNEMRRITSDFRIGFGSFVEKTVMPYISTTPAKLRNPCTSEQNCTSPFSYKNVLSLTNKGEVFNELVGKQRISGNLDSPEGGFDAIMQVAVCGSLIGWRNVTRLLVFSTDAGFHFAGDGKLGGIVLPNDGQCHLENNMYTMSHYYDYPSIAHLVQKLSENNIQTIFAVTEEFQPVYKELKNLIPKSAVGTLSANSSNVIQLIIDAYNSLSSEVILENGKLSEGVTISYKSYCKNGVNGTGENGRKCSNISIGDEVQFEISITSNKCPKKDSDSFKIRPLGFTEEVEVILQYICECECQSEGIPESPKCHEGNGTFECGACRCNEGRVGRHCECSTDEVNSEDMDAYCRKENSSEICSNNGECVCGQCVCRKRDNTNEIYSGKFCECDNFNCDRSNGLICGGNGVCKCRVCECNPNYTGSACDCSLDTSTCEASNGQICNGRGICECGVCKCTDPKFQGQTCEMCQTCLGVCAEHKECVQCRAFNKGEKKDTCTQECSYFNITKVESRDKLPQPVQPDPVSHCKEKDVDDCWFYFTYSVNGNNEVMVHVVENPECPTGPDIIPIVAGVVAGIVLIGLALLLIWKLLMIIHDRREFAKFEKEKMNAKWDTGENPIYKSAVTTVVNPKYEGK
Type: cell-based
Method: For in vitro cell adhesion assays, compounds were dissolved in DMSO to make a series of stock solutions such that a 1:100 dilution in assay buffer would yield the desired final working concentrations in 1% DMSO (vehicle). Human VCAM-1 and ICAM-1 were purchased from R&D Systems (Minneapolis, MN). The Jurkat (VCAM-1 assays) and HSB (ICAM-1 assays) cell lines were obtained from American Type Culture Collection (Manassas, VA) and were maintained in recommended culture media.
Assays were performed as previously described in Vanderslice et al., (2010), Biochem Biophys Res Commun 400, 619-624; and Vanderslice et al., (2013) J Biol Chem 288, 19414-19428. VCAM-1 or ICAM-1 ligand in 50 μL of 50 mM Tris-HCl (pH 7.4), 150 mM NaCl, (TBS) was added to wells of a 96-well plate and allowed to coat overnight at 4° C. To maximize the window to evaluate agonist activity, a sub-optimal coating concentration of ligand was used, typically 0.5 and 5 μg/mL in 50 μL TBS for VCAM-1 and ICAM-1 respectively. This ligand concentration corresponded approximately to that which would yield <5% adhesion as determined by dose-response curves. Briefly, 2×10^6 cells were labeled for 30 minutes with calcein-AM (Molecular Probes), washed, resuspended in binding buffer, and added to triplicate wells of ligand-coated plates (2×10^5 cells/well) that had been blocked with 2% BSA. After a 30-minute incubation at 37° C., the plates were washed 3 times with binding buffer, the adherent cells were lysed, and fluorescence was measured on a Tecan Safire^2 plate reader. The binding buffer was PBS with 1 mM MgCl2, 50% FBS for α4β1/VCAM-1 assays and PBS with 2 mM MgCl2, 5 mM EGTA, 50% FBS for αLβ2/ICAM-1 assays. EC50 is defined as the concentration of compound required to achieve 50% of the maximal response.

Row | Structure (SMILES) | Group against VCAM
1 | COc1cccc(CN(Cc2cccc(OC)c2)c2nc(COC3CCOCC3)cs2)c1 [Compound 122, N,N-bis(3-methoxybenzyl)-4-((tetrahydro-2H-pyran-4-yloxy)methyl)thiazol-2-amine] | II (Group II is more than twice that of THI0349 but less than five times THI0349's EC50)
2 | COc1cccc(CN(Cc2cccc(OC)c2)c2nc(CNC3CCN(C)CC3)cs2)c1 [Compound 126, N,N-bis(3-methoxybenzyl)-4-((1-methylpiperidin-4-ylamino)methyl)thiazol-2-amine] | III (Group III more than five times the EC50 of THI0349)
3 | CCOC(=O)c1csc(N(Cc2cccc(OC)c2)Cc2ccc3nc[nH]c3c2)n1 [Compound 120, ethyl 2-(((1H-benzo[d]imidazol-6-yl)methyl)(3-methoxybenzyl)amino)thiazole-4-carboxylate] | III (Group III more than five times the EC50 of THI0349)
4 | COc1cccc(CN(Cc2cccc(OC)c2)c2nc(COCCOC3CCOCC3)cs2)c1 [Compound 131, N,N-bis(3-methoxybenzyl)-4-((2-(tetrahydro-2H-pyran-4-yloxy)ethoxy)methyl)thiazol-2-amine] | I (Group I maintains at least the same potency or better up to more than twice that of the EC50 of THI0349 ran on the same plate)
5 | COc1cccc(CN(Cc2cccc(OC)c2)c2nc(COCC3COC3)cs2)c1 [Compound 129, N,N-bis(3-methoxybenzyl)-4-((oxetan-3-ylmethoxy)methyl)thiazol-2-amine] | II (Group II is more than twice that of THI0349 but less than five times THI0349's EC50)
6 | COc1cccc(CN(Cc2cccc(OC)c2)c2nc(COC3COC3)cs2)c1 [Compound 123, N,N-bis(3-methoxybenzyl)-4-((oxetan-3-yloxy)methyl)thiazol-2-amine] | II (Group II is more than twice that of THI0349 but less than five times THI0349's EC50)
7 | COc1cccc(CN(Cc2cccc(OC)c2)c2nc(CNCC3CCN(C)CC3)cs2)c1 [Compound 130, N,N-bis(3-methoxybenzyl)-4-(((1-methylpiperidin-4-yl)methylamino)methyl)thiazol-2-amine] | III (Group III more than five times the EC50 of THI0349)
8 | COc1cccc(CN(Cc2cccc(OC)c2)c2nc(CN(C)C3CCOCC3)cs2)c1 [Compound 125, N,N-bis(3-methoxybenzyl)-4-((methyl(tetrahydro-2H-pyran-4-yl)amino)methyl)thiazol-2-amine] | II (Group II is more than twice that of THI0349 but less than five times THI0349's EC50)
9 | COc1cccc(CN(Cc2cccc(OC)c2)c2nc(COCC3CCOCC3)cs2)c1 [Compound 124, N,N-bis(3-methoxybenzyl)-4-(((tetrahydro-2H-pyran-4-yl)methoxy)methyl)thiazol-2-amine] | II (Group II is more than twice that of THI0349 but less than five times THI0349's EC50)
10 | COc1cccc(CN(Cc2cccc(OC)c2)c2nc(CNC3CCOCC3)cs2)c1 [Compound 128, N,N-bis(3-methoxybenzyl)-4-((tetrahydro-2H-pyran-4-ylamino)methyl)thiazol-2-amine] | I (Group I maintains at least the same potency or better up to more than twice that of the EC50 of THI0349 ran on the same plate)
11 | COc1ccc(CCNC(=O)c2csc(N(Cc3cccc(OC)c3)Cc3cccc(OC)c3)n2)cc1 [Compound 21, 2-(bis(3-methoxybenzyl)amino)-N-(4-methoxyphenethyl)thiazole-4-carboxamide] | I (Group I maintains at least the same potency or better up to more than twice that of the EC50 of THI0349 ran on the same plate)

Same assay, conditions: assay conditions reported herein, in the presence of serum; read-out: EC50 against VCAM

Row | Structure (SMILES) | EC50 [µM]
12 | O=C(OCCOCCOCCOC(=O)N(Cc1cccs1)Cc1cccs1)N(Cc1cccs1)Cc1cccs1 [THI0349, reference compound] | 11
13 | CCCC[C@@H](COC(=O)N(Cc1cccs1)Cc1cccs1)NC(=O)N[C@@H](CC(=O)OC)c1ccc2c(c1)OCO2 [THI0019, reference compound] | 33
